This is an account of results in US10513709B2, “Somatic cell nuclear transfer methods” (priority 2013, dated 2019).

Each structure is given as a SMILES string.

The subject of one test is human oocytes. Nature of the test: Development of human somatic cell nuclear transfer oocytes beyond the cleavage stage. It counts as cell-based. The procedure:
Oocytes were enucleated using microtubule birefringence (Oosight) as described previously by Noggle et al., 2011. Nuclear transfer was performed by fusion of somatic cells to oocytes using inactivated Sendai virus diluted 1:10 to 1:20 in suspension medium. Fusion was confirmed visually. 1-3 hours post fusion, oocytes were activated using 3 μM ionomycin in Global total for 5 minutes at 37 degrees celsius, followed by culture in 10 μM puromycin, 2 mM 6-DMAP, as well as the histone deacetylase (HDAC) inhibitors scriptaid and nch51 for 4 to 4.5 hours. Activated constructs were cultured in HDAC inhibitor for an additional 10-16 hours, followed by culture in Global total only. Culture was performed in a MINC incubator fed with gas containing 6% CO2, 5% oxygen and 89% nitrogen. Calcium-free medium was used for some of the manipulations resulting in nuclear transfer ES cells.
For some of the experiments described above additional modifications were introduced as described in Tachibana et al., 2013. Caffeine at a 1 mM concentration was added to the incubation medium during enucleation and oocyte fusion. Oocytes were activated using 2-4 pulses of 50 μs width at 2.7 kV/cm in mannitol containing fusion medium using an LF201 pulser (Nepagene), followed by 4 hours of culture in 2 mM 6-DMAP. Activated constructs were cultured in Global total containing 10% FBS and TSA for 12 hours, followed by culture to the blastocysts stage in medium containing 10% FBS.
The derivation of nuclear transfer ES cell lines from BJ fibroblasts at passage 11 was performed using nuclear transfer 30 min prior to the removal of the oocyte genome in the presence of 1 mM caffeine. Derivation of the adult cell NT-ES cell line was performed using somatic cells at passage 8, from a subject with T1D (ID-1018). Oocytes were transported in GMOPSplus containing 1 mM caffeine. Upon completion of the manipulation, oocytes were incubated for 45 min-1 h in calcium-free MCZB, then placed in calcium containing medium for 10 min prior to activation and culture as described above. Oocyte activation was performed within 2 hours post transfer using 4 electrical pulses, followed by incubation in medium containing HDAC inhibitors scriptaid and nch51, in addition to 10 μg/ml puromycin and 2 mM 6-DMAP for 4 hours, and thereafter, medium containing HDAC inhibitor for 15 hours. Culture was performed in a Heracell 150i incubator containing 5% CO2 at 37° C., in Global medium (IVFonline LGGG-050) containing 10% fetal bovine serum. ES cell derivation was conducted in medium containing DMEM/F12 supplemented with 10% KO-SR and 10% FBS, Rock inhibitor Y-27632, thiazovivin, non-essential amino acids, 10 ng/ml bFGF, Glutamax, and beta mercaptoethanol (all reagents from Life Technologies). Upon attachment, trophectoderm cells were ablated using laser pulses using a Lykos laser (Hamilton Thorne). Outgrowths were apparent within 10 days of plating, and were picked when colonies reached a size of about 1 mm in diameter. Passaging was done enzymatically using TrpLE (Life Technologies) and standard ES cell medium (substituting FBS with KO-SR and DMEM/F12 with KO-DMEM) using Rock inhibitor Y-27632 for the first day after plating.

Another test has as its system enucleated mouse oocytes. Nature of the test: Chromosome segregation at the first mitosis after nuclear transfer. The test is classed as cell-based. An excerpt:
To further investigate the mechanism of genomic instability after somatic cell nuclear transfer, we transferred genomes of somatic and embryonic mouse cells into enucleated mouse oocytes. As a control for our manipulations, we transplanted oocyte genomes from one MII oocyte to another. We first quantified the number of abnormal anaphase figures in unmanipulated oocytes, including bridges, fragments, and missegregating chromosomes. Abnormalities in parthenotes were few, or less than 5 percent at anaphase of the second meiosis and the first mitosis (FIG. 13A). […] Upon transfer of mitotic fibroblast or ES cell genomes into MII oocytes, the frequency of these abnormalities remained unaltered, or 6% and 6.9%. […] Abnormal anaphase figures were further increased when using interphase genomes of either cumulus cells or T cells.
As different cell types are known to differ in their gene expression pattern, we first determined whether gene expression during the first cell cycle was required for a normal chromosome segregation at the first embryonic mitosis. […] As cell-type specific gene expression appeared to be irrelevant to chromosome segregation at the first mitosis, we investigated whether other cell-type specific properties of the genome were of importance. It appeared conceivable that for normal chromosome segregation, the prior duplication of the genome at interphase must also be normal. To distinguish whether the chromosome segregation we observed were due to abnormal spindle attachment to chromosomes or due to structural deficiencies that can arise during DNA replication, we stained anaphases with antibodies recognizing centromeres. […]
To determine whether other parameters known to affect the developmental efficiency after somatic cell nuclear transfer affected the fidelity of segregation at the first mitosis, we investigated the role of the nuclear structure. […] We transferred somatic nuclei within the first hour post activation, and analyzed chromosome segregation at the first mitosis. […]

The subject of the next test is enucleated human oocytes. Nature of the test: Activation and polar body extrusion after transfer of a mitotic somatic genome. It counts as cell-based. The procedure: We next sought to determine the timing and molecular mechanism of these chromosomal abnormalities. We reasoned that if the removal of the oocyte spindle removed essential components, then these defects should be apparent at the second meiotic division. We removed the oocyte spindle-chromosome complex, and transferred the mitotic genome of a somatic cell that had been collected upon treatment with nocodazole and were kept on ice prior to transfer (FIG. 12A). Remarkably, within 1-2 hours post transfer, birefringent spindles were assembled in oocytes and chromosomes were aligned on the metaphase plate (FIGS. 12A, 12B, 12C). Upon artificial activation using a calcium ionophore and puromycin, 16/19 oocytes segregated somatic cell chromatin into a polar body and formed a single pronucleus in the activated oocyte (FIG. 12F-I). And like upon segregation of oocyte chromatin, a midbody formed and the chromosome passenger complex component survivin localized to the midbody (FIG. 12E). To examine the accuracy of chromosome segregation, (pseudo-) polar bodies were biopsied and the karyotype determined using nucleotide polymorphism arrays. […] However, when we analyzed the karyotype of blastomeres using nucleotide arrays, we found a large number of karyotypic abnormalities (FIG. 12I-L). […]

For a further test, the system named is oocytes. To be noted: oocyte activation with puromycin versus 6-dmap; cited from earlier work.
The mark [1] stands for this setting: enucleated oocytes, agent used at activation / first 17 hours of embryo culture.

As to `O=C(CCCCCN1C(=O)c2cccc3cccc(c23)C1=O)NO` [scriptaid, 6-(1,3-Dioxo-1H,3H-benzo[de]isoquinolin-2-yl)-hexanoic acid hydroxyamide], the “development after somatic cell nuclear transfer” value in the test on human oocytes (setting [1]) is “development to the morula and blastocyst stage at a low frequency”. The “frequency of chromosome segregation errors” value in the test with enucleated mouse oocytes (first mitosis) was “decreased the frequency of chromosome segregation errors”.

Turning to `CN(C)c1ncnc2nc[nH]c12` [6-dmap, 6-(dimethylamino)purine], the “dividing embryos severely abnormal” value with enucleated mouse oocytes (somatic nuclei transferred within first hour after activation and kinase inhibition with 6-dmap) is on record as 90%.

With `Cn1c(=O)c2c(ncn2C)n(C)c1=O` [caffeine], in the test with human oocytes (caffeine also during oocyte transport, calcium omitted from manipulation medium), the “efficiency and quality of blastocysts” value was “most efficient and high quality blastocyts”. Moreover, the blastocyst development in the test with human oocytes (electrical pulse for activation and caffeine during oocyte manipulation) was 10%.

Consider `COc1ccc(C[C@H](N)C(=O)N[C@H]2[C@@H](O)[C@H](n3cnc4c(N(C)C)ncnc43)O[C@@H]2CO)cc1` [puromycin], for which the “development after somatic cell nuclear transfer” value in the test with human oocytes (setting [1]) is given as “development still arrested at cleavage stages”; with human oocytes (oocyte genome not removed, puromycin for oocyte activation) it was “efficient development to the blastocyst stage”. Also, the “oocytes segregating somatic chromatin into a polar body and forming a single pronucleus” value with enucleated human oocytes (activation with a calcium ionophore and puromycin) was 16/19. Further, in the test with enucleated human oocytes (puromycin for 4 hours without meiotic kinase inhibitor, M-phase somatic genome), the “oocyte activation shown by polar body extrusion” value is “efficient polar body extrusion”. Also, the efficiency of parthenogenesis entry in the test with oocytes is given as “more efficient”.

Consider `CC[C@H](C)[C@@H]1NC(=O)CNC(=O)[C@@H]2Cc3c([nH]c4cc(O)ccc34)[S+]([O-])C[C@@H](NC(=O)CNC1=O)C(=O)N[C@@H](CC(N)=O)C(=O)N1C[C@H](O)C[C@H]1C(=O)N[C@@H]([C@@H](C)[C@@H](O)CO)C(=O)N2` (stereo partly drawn) [alpha amanitin], for which the “frequency of normal mitotic figures” value in the test on enucleated mouse oocytes (added to culture medium during first cell cycle) is “did not significantly increase”.
